# From patent US9340577B2, “HLA binding motifs and peptides and their uses” (priority 1992, dated 2016)
# No end group written: not given here.
# Experiments:
# Test in all cases: biochemical
# Type in all cases: binding
# A*6802 = A*6802 (Homo sapiens, UniProt P04439, A269V/D140Y/D185E/E176V/E277Q/E87N/F33Y/G231S/I121R/I166T/I218V/L180W/L300P/L318F/N151K/P208A/P217A/Q86R/R138H/R169H/S129P/T345S/V36M)
# HLA-A*0201 (HLA-A2.1) = HLA-A*0201 (HLA-A2.1) (Homo sapiens, UniProt P04439, D140Y/D185E/D98H/E176V/E277Q/G131W/G231S/I119V/I121R/I166T/I218V/L300P/L318F/N151K/N90K/P208A/P217A/Q86G/Q94H/R138H/R169H/T345S)
# A*0203 = A*0203 (Homo sapiens, UniProt P04439, A173T/D140Y/D185E/D98H/E277Q/G131W/G231S/I119V/I121R/I166T/I218V/L180W/L300P/L318F/N151K/N90K/P208A/P217A/Q86G/Q94H/R138H/R169H/T345S)
# A*0202 = A*0202 (Homo sapiens, UniProt P04439, D140Y/D185E/D98H/E176V/E277Q/G131W/G231S/I119L/I121R/I166T/I218V/L180W/L300P/L318F/N151K/N90K/P208A/P217A/Q67R/Q86G/Q94H/R138H/R169H/T345S)
# A*0206 = A*0206 (Homo sapiens, UniProt P04439, D140Y/D185E/D98H/E176V/E277Q/F33Y/G131W/G231S/I119V/I121R/I166T/I218V/L300P/L318F/N151K/N90K/P208A/P217A/Q86G/Q94H/R138H/R169H/T345S)
Compound,IC50 (A*6802) [nM],IC50 (HLA-A*0201 (HLA-A2.1)) [nM],IC50 (A*0203) [nM],IC50 (A*0202) [nM],IC50 (A*0206) [nM]
TLELFISNI [Peptide 9013.0082],949,2460,1700,170,3850
FQKYKTLFV [Peptide 1578.54],> 20000,1140,30,821,419
PLYSWRINGI [Peptide 9013.0236],> 20000,> 20000,14,348,> 20000
CQAHNSDTGV [Peptide 9013.0190],> 20000,> 20000,466,339,1560
VLAEAMAAA [Peptide 1516.12],639,17,3.2,1.9,16
SLQDSQFEL [Peptide 1578.35],8850,141,165,1.4,160
IQGAVISFV [Peptide 1578.13],4880,45,13,12,35
IQNDTGFYV [Peptide 9013.0035],4500,148,37,16,32
VLAEAMSHV [Peptide 1516.08],304,29,5.5,1.9,89
GMIDDVTAI [Peptide 1578.44],> 20000,23,7.3,5.3,37
EVQNTTYLWWV [Peptide 9013.0326],34,> 20000,19600,> 20000,> 20000
SLNRSDPVTL [Peptide 9013.0233],> 20000,16200,80,59,> 20000
VLKSDLVNEEA [Peptide 9013.0279],> 20000,> 20000,3420,14,> 20000
CLAHNSDTGL [Peptide 9013.0191],> 20000,13500,39,13,> 20000
LLTFWNPPTV [Peptide 9013.0120],607,170,3.2,10,1000
FQYAQLADV [Peptide 1578.36],16900,42,12,3.7,32
GLTVGIMIGVL [Peptide 9013.0343],2640,5010,290,914,11500
FQFQNPFPL [Peptide 1578.40],3160,8.4,3.5,0.75,6.3
IIYPNASLLV [Peptide 9013.0144],830,466,4.7,9.9,70
QLSNGNRTLTL [Peptide 9013.0292],> 20000,> 20000,683,80,> 20000
RLTVTTITV [Peptide 9013.0067],13000,108,36,22,704
YLWWVNNQSV [Peptide 9013.0197],17,8.9,4.2,1.2,65
YTNWGEIYI [Peptide 1578.49],24,293,82,10,700
RTLQQLLFI [Peptide 1525.11],> 20000,152,1660,> 20000,89
CSCC[C@H](NC(=O)[C@H](C)N)C(=O)N[C@@H](CS)C(=O)N[C@@H](CCCNC(=N)N)C(=O)N[C@@H](Cc1c[nH]c2ccccc12)C(=O)NCC(=O)N[C@@H](CC(C)C)C(=O)N[C@@H](CC(C)C)C(=O)N[C@H](C(=O)O)C(C)C [Peptide 1334.07],3900,51,1570,9280,2110
RILQQMLFI [Peptide 1525.22],> 20000,187,241,709,108

Compound,IC50 (A*6802) [nM],IC50 (HLA-A*0201 (HLA-A2.1)) [nM],IC50 (A*0203) [nM],IC50 (A*0202) [nM],IC50 (A*0206) [nM]
EVFIPNITV [Peptide 9013.0062],4,> 20000,> 20000,> 20000,4260
ALAFTCEPET [Peptide 9013.0156],> 20000,> 20000,279,206,7960
ALNTTYLWWV [Peptide 9013.0217],7700,223,5.6,48,578
GLQQATPGPA [Peptide 9013.0143],> 20000,4870,3.9,220,> 20000
ALYWYKTGI [Peptide 86.0176],3290,665,53,21,4120
LLLSNDNRTL [Peptide 9013.0205],> 20000,8190,4180,303,> 20000
FLGALKSFV [Peptide 1593.56],822,93,1.1,1.1,79
RILQRLLFV [Peptide 1525.27],> 20000,64,11,1590,73
FLQGSVICFV [Peptide 1578.05],380,41,9.1,3.5,73
YLCGIQNSVSA [Peptide 9013.0338],9160,208,180,21,513
LTFWNPPTTV [Peptide 9013.0122],23,210,1.9,38,339
TLNNSGSYT [Peptide 9013.0065],> 20000,> 20000,233,237,> 20000
ALYSWFVNGT [Peptide 9013.0173],> 20000,661,3.6,8.9,875
MTSNPAIPV [Peptide 1539.03],2,1470,68,951,911
IVNTTYLWWV [Peptide 9013.0196],71,5940,389,1440,91
ALFNVQEGV [Peptide 1578.41],914,64,5.2,2,45
GLFRVYPEL [Peptide 9013.0039],> 20000,43,229,13,1420
TLQDVSLEV [Peptide 1578.45],2680,701,26,18,2070
QLHTQELFI [Peptide 9013.0079],19100,832,264,25,11700
VLAEAMSHT [Peptide 1539.06],> 20000,243,7.5,16,975
ILYPNASLLI [Peptide 9013.0145],3120,88,2.8,1.3,252
TLTTITVYA [Peptide 9013.0069],5,14,2.6,0.75,666
TVTTITVYV [Peptide 9013.0068],3,102,58,12,95
RILQQLLFV [Peptide 1525.09],17900,28,60,489,18
RILQQLLLI [Peptide 1525.20],> 20000,199,1000,4680,82
IQNDTGFYTV [Peptide 9013.0149],8840,600,31,20,63
